Data on 13 compounds can be found in ChEMBL document CHEMBL4184166 (Bioorg Med Chem Lett, 2017).

SMILES strings stand for the structures.

For one data set, the target named is T1, CYP1A1 (Homo sapiens, UniProt P04798).
T1 sequence (P04798 whole entry): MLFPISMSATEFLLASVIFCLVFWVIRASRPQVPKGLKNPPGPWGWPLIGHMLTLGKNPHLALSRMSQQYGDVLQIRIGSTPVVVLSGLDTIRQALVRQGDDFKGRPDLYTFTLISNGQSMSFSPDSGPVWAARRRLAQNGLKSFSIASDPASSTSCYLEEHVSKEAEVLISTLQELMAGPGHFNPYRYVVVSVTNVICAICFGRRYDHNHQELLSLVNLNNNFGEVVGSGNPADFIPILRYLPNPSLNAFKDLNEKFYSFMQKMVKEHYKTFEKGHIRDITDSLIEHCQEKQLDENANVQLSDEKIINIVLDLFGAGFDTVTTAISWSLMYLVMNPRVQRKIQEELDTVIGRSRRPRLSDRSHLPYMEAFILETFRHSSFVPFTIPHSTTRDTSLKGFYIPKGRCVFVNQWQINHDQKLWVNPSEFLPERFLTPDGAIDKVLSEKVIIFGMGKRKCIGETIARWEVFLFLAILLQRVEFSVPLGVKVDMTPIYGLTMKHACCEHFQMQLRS
The experiment in a line: Inhibition of recombinant human CYP1A1 expressed in yeast microsomal membranes at 10 uM by fluorescence assay relative to control. In kind it is cell membranes.

In another data set the target is T2, CYP1B1 (Homo sapiens, UniProt Q16678).
T2 sequence (Q16678 whole entry): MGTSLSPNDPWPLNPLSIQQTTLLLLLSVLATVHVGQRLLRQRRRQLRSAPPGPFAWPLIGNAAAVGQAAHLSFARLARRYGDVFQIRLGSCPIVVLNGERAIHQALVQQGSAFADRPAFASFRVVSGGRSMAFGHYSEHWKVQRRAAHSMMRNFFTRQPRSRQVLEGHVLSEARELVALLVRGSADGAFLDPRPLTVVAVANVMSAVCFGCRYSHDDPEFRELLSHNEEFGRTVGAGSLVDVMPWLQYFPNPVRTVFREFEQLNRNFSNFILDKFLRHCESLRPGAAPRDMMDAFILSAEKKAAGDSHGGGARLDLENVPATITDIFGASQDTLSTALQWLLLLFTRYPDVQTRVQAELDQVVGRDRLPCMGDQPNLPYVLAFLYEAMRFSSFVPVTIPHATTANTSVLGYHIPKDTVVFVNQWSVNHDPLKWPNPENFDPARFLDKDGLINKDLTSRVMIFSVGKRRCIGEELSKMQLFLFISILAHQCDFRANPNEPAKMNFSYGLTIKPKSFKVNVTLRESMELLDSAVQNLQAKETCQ
Briefly: Inhibition of human CYP1B1 expressed in yeast microsomal membranes at 10 uM using 7-ethoxyresorufin as substrate by fluorescence assay relative to control. Type of data set: cell membranes. Particulars: probe 7-ethoxyresorufin.

Data set [1] concerns the target T3, Cytochrome P450 2D6 (Homo sapiens, UniProt P10635). The experiment in a line: Inhibition of recombinant human CYP2D6 expressed in yeast microsomal membranes by fluorescence assay. Type of data set: ADME, cell membranes, Microsomal Membrane.
Data set [2] addresses T3, Cytochrome P450 2D6. Briefly: Inhibition of human CYP2D6 expressed in HEK293 cells by fluorescence assay. In kind it is ADME, cell-based.
Data set [3] has as its target T4, Cytochrome P450 1B1 (Homo sapiens, UniProt Q16678).
T4 sequence (Q16678 whole entry): T2 sequence (Q16678 whole entry)
Briefly: Inhibition of human CYP1B1 expressed in HEK293 cells by fluorescence assay. In kind it is cell-based.

Data set [4] addresses T5, Cytochrome P450 1A2 (Homo sapiens, UniProt P05177).
T5 sequence (P05177 whole entry): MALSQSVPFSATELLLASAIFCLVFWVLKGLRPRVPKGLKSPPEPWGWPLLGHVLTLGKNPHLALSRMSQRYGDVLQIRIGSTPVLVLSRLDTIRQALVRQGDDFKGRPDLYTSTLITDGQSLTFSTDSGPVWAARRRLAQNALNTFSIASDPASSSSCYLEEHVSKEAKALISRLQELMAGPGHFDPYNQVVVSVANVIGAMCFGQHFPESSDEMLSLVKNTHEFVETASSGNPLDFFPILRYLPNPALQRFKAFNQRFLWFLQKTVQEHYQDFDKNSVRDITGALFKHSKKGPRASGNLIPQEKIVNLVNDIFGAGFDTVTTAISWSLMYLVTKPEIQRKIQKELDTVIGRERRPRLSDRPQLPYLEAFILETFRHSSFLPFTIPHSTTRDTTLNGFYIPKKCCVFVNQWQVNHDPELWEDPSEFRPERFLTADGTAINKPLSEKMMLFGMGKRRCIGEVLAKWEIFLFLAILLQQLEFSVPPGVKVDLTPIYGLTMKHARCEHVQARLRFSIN
The experiment in a line: Inhibition of recombinant human CYP1A2 expressed in yeast microsomal membranes by fluorescence assay. In kind it is ADME, cell membranes, Microsomal Membrane.

For data set [5], the target named is T6, Cytochrome P450 3A4 (Homo sapiens, UniProt P08684). Briefly: Inhibition of human CYP3A4 expressed in HEK293 cells by fluorescence assay. In kind it is ADME, cell-based.
For data set [6], the target named is T7, Cytochrome P450 1A1 (Homo sapiens, UniProt P04798).
T7 sequence (P04798 whole entry): T1 sequence (P04798 whole entry)
The experiment in a line: Inhibition of recombinant human CYP1A1 expressed in yeast microsomal membranes by fluorescence assay. Type of data set: cell membranes.

Data set [7] addresses T4, Cytochrome P450 1B1. Briefly: Inhibition of human CYP1B1 expressed in yeast microsomal membranes using 7-ethoxyresorufin as substrate by fluorescence assay. Type of data set: cell membranes.
The target of data set [8] is T6, Cytochrome P450 3A4. Briefly: Inhibition of recombinant human CYP3A4 expressed in yeast microsomal membranes by fluorescence assay. In kind it is ADME, cell membranes, Microsomal Membrane.
Data set [9] has as its target T5, Cytochrome P450 1A2. The experiment in a line: Inhibition of human CYP1A2 expressed in HEK293 cells by fluorescence assay. Type of data set: ADME, cell-based.
Data set [10] concerns the target T7, Cytochrome P450 1A1. The experiment in a line: Inhibition of human CYP1A expressed in HEK293 cells by fluorescence assay. Type of data set: ADME, cell-based.

T3 sequence (P10635 whole entry): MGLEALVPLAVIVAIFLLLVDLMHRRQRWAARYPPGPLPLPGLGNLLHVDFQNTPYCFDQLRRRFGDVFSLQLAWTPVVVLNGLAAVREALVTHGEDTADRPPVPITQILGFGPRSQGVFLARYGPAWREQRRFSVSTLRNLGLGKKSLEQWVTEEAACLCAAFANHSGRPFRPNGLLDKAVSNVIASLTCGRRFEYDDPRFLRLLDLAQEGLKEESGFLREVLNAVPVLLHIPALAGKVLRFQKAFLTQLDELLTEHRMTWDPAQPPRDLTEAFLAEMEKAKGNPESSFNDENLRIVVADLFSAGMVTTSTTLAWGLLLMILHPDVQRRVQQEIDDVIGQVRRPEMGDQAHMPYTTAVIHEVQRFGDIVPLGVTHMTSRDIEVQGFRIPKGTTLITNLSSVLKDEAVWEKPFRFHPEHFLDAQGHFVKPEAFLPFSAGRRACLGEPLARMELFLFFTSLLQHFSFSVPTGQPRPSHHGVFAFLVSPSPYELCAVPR
T6 sequence (P08684 whole entry): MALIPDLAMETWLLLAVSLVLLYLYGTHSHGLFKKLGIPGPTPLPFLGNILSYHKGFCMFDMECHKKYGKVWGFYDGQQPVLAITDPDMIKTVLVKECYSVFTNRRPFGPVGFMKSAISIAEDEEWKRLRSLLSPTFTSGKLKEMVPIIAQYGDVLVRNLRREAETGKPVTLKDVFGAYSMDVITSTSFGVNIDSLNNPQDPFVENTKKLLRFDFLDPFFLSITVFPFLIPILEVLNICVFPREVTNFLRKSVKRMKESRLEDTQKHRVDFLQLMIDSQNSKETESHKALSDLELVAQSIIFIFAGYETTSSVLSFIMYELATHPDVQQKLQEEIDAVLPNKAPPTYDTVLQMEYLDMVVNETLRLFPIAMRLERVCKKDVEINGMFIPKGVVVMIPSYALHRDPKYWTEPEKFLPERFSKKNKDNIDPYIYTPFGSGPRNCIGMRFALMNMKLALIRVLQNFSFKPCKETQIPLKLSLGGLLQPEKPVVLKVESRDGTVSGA

For orientation: inhibition means the change of the read-out against control, counted positive when it falls. Take `CC(C)=CCc1cc(C2Oc3c(ccc(O)c3CC=C(C)C)C(=O)C2O)ccc1O` (configuration not stated): the results for the inhibition at 10 µM at CYP1A1 and at CYP1B1 were 31.4% and 7.5%, respectively.

Take `COc1ccc(-c2coc3cc(O)ccc3c2=O)cc1` [FORMONONETIN]: the results for the inhibition at 10 µM on CYP1A1 and on CYP1B1 were 10.8% and -1.3%, respectively.

With `O=C(/C=C/c1ccc(O[C@H]2O[C@@H](CO)[C@H](O)[C@@H](O)[C@@H]2O[C@@H]2OC[C@](O)(CO)[C@H]2O)cc1)c1ccc(O)cc1O`, the inhibition at 10 µM at CYP1A1 was 11.4%; against CYP1B1 it was -9.5%.

As to `O=C1C[C@@H](c2ccc(O)cc2)Oc2cc(O)ccc21` [LIQUIRTIGENIN], the inhibition at 10 µM was determined as 19.2% on CYP1A1 and 38.2% on CYP1B1.

Consider `COc1ccc(C2COc3c(ccc4c3C=CC(C)(C)O4)C2)c(O)c1` (configuration not stated), for which the inhibition at 10 µM at CYP1A1 is 29.6%; against CYP1B1, 12%.

As to `O=C(/C=C/c1ccc(O)cc1)c1ccc(O)cc1O` [ISOLIQUIRITIGENIN], the inhibition at 10 µM on CYP1A1 was 22.3%; on CYP1B1, 3.1%.

As to `CC1(C)C=Cc2c(ccc3c2OC[C@@H](c2ccc(O)cc2O)C3)O1` [GLABRIDIN], the results for the inhibition at 10 µM at CYP1A1 and against CYP1B1 were 36.8% and 26.6%, respectively.

The term IC50 denotes the concentration at which inhibition is half-maximal. As to `O=c1c(O)c(-c2ccc(O)c(O)c2)oc2cc(O)cc(O)c12` [QUERCETIN], the IC50 at Cytochrome P450 2D6 [1] and on Cytochrome P450 2D6 [2] was greater than 20 µM throughout. Besides, the figures for the inhibition at 10 µM at CYP1A1 and against CYP1B1 were 31.5% and 67.2%, respectively.

On to `CC1(C)[C@@H](O[C@H]2O[C@H](C(=O)O)[C@@H](O)[C@H](O)[C@H]2O[C@@H]2O[C@H](C(=O)O)[C@@H](O)[C@H](O)[C@H]2O)CC[C@]2(C)[C@H]3C(=O)C=C4[C@@H]5C[C@@](C)(C(=O)O)CC[C@]5(C)CC[C@@]4(C)[C@]3(C)CC[C@@H]12` [GLYCYRRHIZIN], for which the inhibition at 10 µM on CYP1A1 came out at 39%; against CYP1B1 it was 10.5%.

Consider `CC1(C)[C@@H](O)CC[C@]2(C)[C@H]3C(=O)C=C4[C@@H]5C[C@@](C)(C(=O)O)CC[C@]5(C)CC[C@@]4(C)[C@]3(C)CC[C@@H]12` [ENOXOLONE], for which the inhibition at 10 µM was 11.4% at CYP1A1 and -2.1% against CYP1B1.

As to `O=c1cc(-c2ccccc2)oc2c1ccc1ccccc12` [ALPHA-NAPHTHOFLAVONE], the inhibition at 10 µM on CYP1A1 was found to be 97%.

Turning to `COc1ccc2c(c1)OC1c3ccc(O)cc3OCC21` (configuration not stated), the inhibition at 10 µM at CYP1A1 turned out to be 27.5%; against CYP1B1 it was 31.7%.

For `CC(C)=CCc1cc(C2CC(=O)c3ccc(O)c(CC=C(C)C)c3O2)ccc1O` (configuration not stated), the half-inhibitory concentration (IC50) on Cytochrome P450 1B1 [3] is 15 µM; on Cytochrome P450 1A2 [4], greater than 20 µM; against Cytochrome P450 3A4 [5], greater than 20 µM; at Cytochrome P450 1A1 [6], 17.6 µM; against Cytochrome P450 1B1 [7] it was greater than 20 µM; at Cytochrome P450 2D6 [1] it was greater than 20 µM. The IC50 on Cytochrome P450 3A4 [8], against Cytochrome P450 1A2 [9], at Cytochrome P450 1A1 [10] and at Cytochrome P450 2D6 [2] was greater than 20 µM throughout. The results for the inhibition at 10 µM at CYP1A1 and at CYP1B1 were 67.2% and 17.7%, respectively.
